Data set [1] has as its system MDA-MB-231 cells. The experiment in a line: Cell viability assay (Prestoblue) in MDA-MB-231 cells expressing GFP, GFP-Mena or GFP-Mena^INV. The settings on record: 72 h; for effect of Mena or Mena^INV expression on fraction of viable cells / response to drug: range of concentrations.
Description: Cell viability assays were performed in a 96-well plate. 5,000 cells were plated per well and treated with drug 24 hours later. Cell viability was assayed 72 hours later using the PrestoBlue Cell Viability Reagent (Life Technologies), according to manufacturer's protocol. Fluorescence was measured and normalized to cells exposed to vehicle. The activity area was calculated from doseresponse plots using Matlab. All measurements were repeated in triplicate.
Data set [2] deals with MDA-MB-231 xenograft tumors. The experiment in a line: Xenograft tumor growth in NOD-SCID mice with chemotherapy treatment. In kind it is in vivo, mouse. The settings on record: three doses Taxol/paclitaxel 10 mg/kg or two doses Doxorubicin 5 mg/kg. The method, then: Mena or Mena^INV expression blocks Taxol efficacy on tumors in treated animals. Mice with xenograft tumors were generated by injection of MDA-MB-231 cells expressing GFP (Control), GFP-Mena (Mena) or GFP-Mena^INV (Mena^INV) into the mammary fat pads of NOD-SCID mice. […] Tumor size was measured before and after treatment. […] These in vivo findings are consistent with the results obtained in the in vitro data, and indicate that Men/Mena^INV promotes resistance to Taxol as judged by tumor growth.
Xenograft tumor generation and in vivo chemotherapy treatment. All animal experiments were approved by the MIT Division of Comparative Medicine. 2 million MDA-MB-231 cells expressing different MENA isoforms (in PBS and 20% collagen I) were injected into the 4th right mammary fat pad of six week-old female NOD-SCID mice (Taconic). When the tumors reached 1 cm in diameter, mice were treated every five days with either three doses of paclitaxel at 10 mg/kg in 1% DMSO, 3% PEG (MW 400), 1% Tween 80 in PBS by intra-peritoneal injection. In parallel, mice were treated with only in 1% DMSO, 3% PEG (MW 400), 1% Tween 80 in PBS as a vehicle control. One day after the last injection, tumors were measured and mice were use for intravital imaging and then sacrificed. Their tumors and lungs were fixed in 10% formalin overnight, their bone marrow were collected using PBS and cultured in DMEM with 10% fetal bovine serum. The number of tumor cell colonies in cultured bone morrow was counted 1 month after collection. The number of metastasis in each lobe of the lung were counted from lung H&E stained sections visualized by light microscopy and counted by two blinded individuals. Each tumor group contained 3-5 mice.
MENA isoform expression is associated with increased tumor growth in vivo during paclitaxel treatment. Whether MENA-associated paclitaxel resistance could also be observed in vivo was examined. Xenograft tumors were generated by injecting MDA-MB-231 cells expressing MENA isoforms into the mammary fat pads of NOD-SCID mice. Mice were treated with paclitaxel once tumors reached 1 cm in diameter (FIG. 30A).

In the next data set the test system is ERK, Akt. As to the kind of experiment: Western blot for pERK Y204, ERK, pAkt473 and Akt. Format: cell-based, human. The note with it: 231-MENA^INV cells; 10 nM paclitaxel, 0.1 μM MEKi, 72 hours. How it is done: (§1) Western blot. Cells were lysed in 25 mM Tris, 150 mM NaCl, 10% glycerol, 1% NP 40 and […] EDTA with a protease Mini-complete protease inhibitors (Roche) and a phosphatase inhibitor cocktail (PhosSTOP, Roche) at 4° C. for 20 minutes. Protein lysates were separated by SDS-PAGE, transferred to a nitrocellulose membrane and blocked with Odyssey Blocking Buffer (LiCor). Membranes were incubated with primary antibody overnight at 4° C. and Licor secondary antibodies at room temperature for 1 hour. Protein level intensity was measured with Image J.
(§2) The MAPK signaling cascade is among the key pathways known to interact with MTs. Both ERK1/2 interact with MTs; MT stabilization by paclitaxel increases ERK phosphorylation and, in turn, ERK pathway activation increases MT dynamics.
(Immunoblotting shows a protein as a band on a membrane.)

The next data set has as its system microtubules (MT). The experiment in a line: Immunofluorescence ratio of Glu-MT (stable) to Tyr-MT (dynamic). Format: cell-based, human. The note with it: 231-MENA^INV cells, 24 hours. The method, then: Immunofluorescence. Glass bottom dishes (Mattek) were coated with Collagen at 0.1 mg/mL diluted in PBS and 50 μg/mL FN for 1 hour at 37° C. Cells were plated for 1 hour, and then treated with paclitaxel alone or in combination with MEKi for 24 hours. Cells were fixed for 20 minutes in 4% paraformaldehyde in PHEM buffer with 0.1% Gluteraldehyde, and then quenched with sodium borohydrate for 5 minutes. Cells were blocked with 2% BSA in TBS-0.1%TritonX-100 for 30 minutes, and incubated with primary antibodies and then secondary antibodies for 1 hour each, at room temperature. Z series of images were taken on an Applied Precision DeltaVision microscope using Softworx acquisition, an Olympus 60×1.4 NA plan apo objective and a Photometrics CoolSNAP HQ camera. Images were deconvolved using Deltavision Softworx software and objective specific point spread function. Images were analyzed with ImageJ, where the whole cell intensity levels of Tyr- or Glu-MT was measured. Images are pooled from at least 3 independent experiments.
Paclitaxel promotes cell death by increasing the stability of MTs, and pathways driving increased MT dynamics are known to promote resistance to taxanes. Therefore, MT structure and dynamics in MENA isoform expressing cells was examined during paclitaxel treatment. […] Post-translational modification of MTs can regulate their dynamics, and antibodies that detect such modifications can be used to infer the relative dynamics of MT populations; in particular, MT tyrosination indicates a dynamic MT state, while de-tyrosination of MTs is associated with increased stability. The relative abundance of stable (Glu-MT) vs. dynamic (Tyr-MT) MTs was measured in individual cells by immunofluorescence with anti-Glu-MT and anti-Tyr-MT antibodies (FIGS. 37A, 37B).
as §2

In data set [3] the test system is MDA-MB-231 cells. As to the kind of experiment: Proliferation assay (cell count) with combinations of paclitaxel and MEKi. In kind it is cell-based, human.
For a further data set, the system named is Mena. The experiment in a line: Mena expression in cultured cells after taxane treatment (Western blot, FACS of GFP). In kind it is cell-based, human. The note with it: MDA-MB-231 populations expressing GFP, GFP-MENA or GFP-MENA^INV. The method, then: Taxol treatment induces increased Mena protein expression in vitro and in vivo. As high level of Mena or Mena^INV expression correlated with low response to Taxo, we hypothesized that Taxol treatment might affect Mena expression. […]. After 72 h of treatment with the drug, the expression level of Mena was 70% higher than in vehicle-treated cells.
as §1
Paclitaxel treatment selects for high MENA expression in vitro and in vivo. The Examples so far indicate that increased MENA or MENA^INV expression levels are associated with reduced responses to paclitaxel. The effect of paclitaxel treatment on levels of MENA expression in cell populations in vitro and in vivo was examined. First, endogenous MENA expression by Western Blot in 5 breast cancer cell lines that were exposed to 100 nM of paclitaxel or a vehicle control were analyzed (FIG. 33A).

Another data set concerns T47D cells. As to the kind of experiment: Wound closure assay and morphology (circularity), T47D cells with Mena^11a-specific shRNA. In kind it is cell-based, human. The note with it: for percent of cell free region filled (gap closure): 48 hours; for circularity of cells at the free edge of the monolayer: perfect circularity=1. From the text:
(§3) The Mena^11a knockdown procedure employed shRNAs was based on 97-mer oligos (Invitrogen) comprising the shRNAs amplified by PCR with primers having EcoRI/XhoI sites, and were cloned into the pMSCV-miR30-MLS-GFP vector (gift from Michael Hemann, Koch Institute, MIT). Oligo sequences are:
Signal intensities from antibodies or rhodamine-labeled barbed ends along the cell edge were quantified with a contour-based ImageJ macro. We measured the distribution of signal along the membrane plotted as a function of distance from the cell edge (mean±SEM) and the sum of the intensities in the first 0.65 μm from the cell edge. Circularity measures were performed by manually tracing the cells at the free edge of the epithelial monolayer, and by using the circularity plugin built in ImageJ. In this analysis, a circularity value of 1 indicates a perfect circle while, as the value approaches 0, it indicates an elongated cell shape. For quantitative imaging, we used the same hardware configuration and exposure time for all cell lines analyzed in the same experiment. […] Extracted pixel intensities were exported to Microsoft Excel for analysis and Graph-Pad Prism for graphing.
(§4) Mena^11a-specific depletion enhances cell migration and membrane protrusion. Previously, the effects of Mena^11a on cancer cell motility were evaluated in assays utilizing ectopic expression. To study the role of endogenously expressed Mena^11a on cancer cell motility, we used Mena^11a-KD cells, including T47D and SKBr3 human breast cancer cells which have >80% reduction of Mena^11a protein levels (FIG. 15A-B, 15E-F), in wound closure assays. […] T47D cells yielded similar results (FIG. 15C-D), although complete closure of the control T47D cells took longer than with SKBr3 cells. […] Therefore, depletion of the Mena^11a isoform from cells that normally express both Mena and Mena^11a increased cell migration rates.
Consistent with changes in migration, we observed that the morphology of T47D Mena^11a-KD cells differed from control-KD cells, specifically at the free edge of the monolayer (FIG. 151).

For the next data set, the system named is SKBr3 cells. The experiment in a line: Wound closure assay, SKBr3 cells with Mena^11a-specific shRNA. In kind it is cell-based, human. The note with it: twenty-four hours. How it is done: as §3, §4

Changes are numbered by the printed parent chain.

On to `N.N.[Cl][Pt][Cl]` [Cisplatin], for which the “effect of Mena or Mena^INV expression on fraction of viable cells / response to drug” value in the data set with MDA-MB-231 cells [1] was “neither GFP-Mena nor GFP-MenaINV expression affected the fraction of viable MDA-MB-231 cells differently than the GFP controls”; in the data set with MDA-MB-231 cells [1] (listed as cisplatin), “neither MENA nor MENA^INV expression affected the response”.
As to `COc1cccc2c1C(=O)c1c(O)c3c(c(O)c1C2=O)C[C@@](O)(C(=O)CO)C[C@@H]3O[C@H]1C[C@H](N)[C@H](O)[C@H](C)O1` [Doxorubicin], in data set [2] (GFP (Control) tumors), the “growth of control tumors compared to vehicle” value is on record as “significantly decreased growth of control tumors”. For the same molecule, in data set [2] (Mena or Mena^INV expressing tumors), the “growth / response of Mena or Mena^INV tumors” value is “decreased response”. The “effect of Mena or Mena^INV expression on fraction of viable cells / response to drug” value with MDA-MB-231 cells [1] is “neither MENA nor MENA^INV expression affected the response”.
`COc1cc2c(cc1OC)CN(CCc1ccc(-n3nnc(-c4cc(OC)c(OC)cc4NC(=O)c4cc(=O)c5ccccc5o4)n3)cc1)CC2` [HM30181]: in the data set with MDA-MB-231 cells [1] (231-Control cells, HM30181 100 nM), the “fraction of viable cells on co-treatment with 100 nM paclitaxel” value is given as “negligibly affected”. Moreover, the “paclitaxel efficacy on co-treatment with MDR1 inhibitor” value in the data set with MDA-MB-231 cells [1] (231-MENA^INV cells, 100 nM paclitaxel) is recorded as “did not increase paclitaxel efficacy”.
In the case of `O=C(NOC[C@H](O)CO)c1ccc(F)c(F)c1Nc1ccc(I)cc1F` [PD0325901], in the data set on ERK, Akt, the “paclitaxel-induced ERK phosphorylation” value is “blocked”. The “stable MTs relative to dynamic MTs, both drugs simultaneously” value with microtubules (MT) (paclitaxel plus MEKi) is “induced increases in stable MTs relative to dynamic MTs”. The “stable MTs relative to dynamic MTs, either drug alone” value in the data set with microtubules (MT) (single drug) was “had no effect”. The “concentrations needed to obtain high levels of cell death relative to 231-Control cells” value in the data set with MDA-MB-231 cells [3] (231-MENA and 231-MENA^INV cells) is “higher concentrations of each drug were needed”. Further, the “combination of paclitaxel and MEKi in proliferation assay (cell death)” value in the data set on MDA-MB-231 cells [3] (all cell lines, 72 hours, both drugs simultaneously) is “significant additive effects”.
On to `CC(=O)O[C@@]12CO[C@@H]1C[C@H](O)[C@@]1(C)C(=O)[C@H](O)C3=C(C)[C@@H](OC(=O)[C@H](O)[C@@H](NC(=O)OC(C)(C)C)c4ccccc4)C[C@@](O)([C@@H](OC(=O)c4ccccc4)[C@H]21)C3(C)C` [docetaxel], for which the “FACS analysis of GFP expression levels after taxane treatment” value in the data set on Mena is “selected for cells expressing higher levels of GFP-MENA or GFP-MENA^INV, but not of GFP”.

B1: sh-2C: paired control shRNA for sh-2, SEQ ID NO. 9 (nucleic acid)
guide: TGCTGTTGACAGTGAGCGAAACAGGTCATAGGATTAATTATAGTGAAGCCACAGATGTATAATTAATCCTATGACCTGTTCTGCCTACTGCCTCGGA
With B1, in the data set on T47D cells, the “percent of cell free region filled (gap closure)” value is given as 40.38% ±4.2 and the “circularity of cells at the free edge of the monolayer” value amounted to 0.640. The “percent of initially cell-free region filled (gap closure)” value in the data set on SKBr3 cells is on record as 55.24% ±1.8.

B2: sh-2: shRNA targeting the 11a insertion of Mena^11a, SEQ ID NO. 8 (nucleic acid)
guide: B1 guide with A19C, A28C, G31T, A36C, T64G, C69A, T72G, C81A
Consider B2, for which, in the data set on T47D cells, the “percent of cell free region filled (gap closure)” value is recorded as 70.20% ±8.8 and the “circularity of cells at the free edge of the monolayer” value amounted to 0.509. Besides, the “percent of initially cell-free region filled (gap closure)” value with SKBr3 cells is on record as 77.84% ±3.6.

B3: sh-1C: paired control shRNA for sh-1, SEQ ID NO. 7 (nucleic acid)
guide: TGCTGTTGACAGTGAGCGAATGATTCCTTAAACAGCCCAATAGTGAAGCCACAGATGTATTGGGCTGTTTAAGGAATCATGTGCCTACTGCCTCGGA
In the case of B3, in the data set with T47D cells, the “percent of cell free region filled (gap closure)” value is given as 50.41% ±3.7 and the “circularity of cells at the free edge of the monolayer” value is 0.683. Moreover, the “percent of initially cell-free region filled (gap closure)” value in the data set with SKBr3 cells is 49.03% ±4.2.

B4: sh-1: shRNA targeting the 11a insertion of Mena^11a, SEQ ID NO. 6 (nucleic acid)
guide: B3 guide with A19C, C27A, A31C, C36A, G64T, T69G, G73T, G81A
For B4, in the data set with T47D cells, the “percent of cell free region filled (gap closure)” value is 78.39% ±4.8 and the “circularity of cells at the free edge of the monolayer” value was found to be 0.614. Also, the “percent of initially cell-free region filled (gap closure)” value in the data set on SKBr3 cells is given as 74.76% ±4.8.

Values taken from patent publication US20170168056A1, “METHODS AND COMPOSITIONS FOR DETECTING AND MODULATING CANCER CELLS” (Massachusetts Institute of Technology, priority 2015, published 2017).
